Test results taken from patent publication US5079150A, “High sensitivity detection of peroxidase activity” (Becton, Dickinson and Company, priority 1988, dated 1992).

Legend:
[1] = target: T1, Horseradish peroxidase (Armoracia rusticana, UniProt P00433); test: Comparison of substrates for HRP detection on membranes, reflectance densitometer; format: biochemical; conditions: substrate 2 mg/mL, approximately three minutes
T1 sequence (P00433 31-353): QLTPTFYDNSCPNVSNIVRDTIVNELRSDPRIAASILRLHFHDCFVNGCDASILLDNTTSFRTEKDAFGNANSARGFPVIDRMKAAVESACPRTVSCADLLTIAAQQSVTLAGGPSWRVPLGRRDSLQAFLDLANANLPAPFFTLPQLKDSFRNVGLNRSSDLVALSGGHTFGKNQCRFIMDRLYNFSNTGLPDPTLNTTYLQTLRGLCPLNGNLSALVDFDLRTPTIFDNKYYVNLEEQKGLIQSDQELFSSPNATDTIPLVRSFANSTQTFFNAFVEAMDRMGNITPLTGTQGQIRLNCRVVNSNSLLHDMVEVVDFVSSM
Protocol: Horseradish peroxidase was diluted serially in 10-fold steps in a buffer containing 51 mM phosphate, 24 mM citrate, pH 5.0. Spot volumes of 1 μL of each stock were applied to either nitrocellulose (0.45 micron, Schleicher and Schuell) or IMMUNODYNE™ nylon immunoaffinity membrane (5 micron, Pall). The membranes were allowed to air dry and then immersed in filtered substrate solutions containing 2 mg/mL of substrate compound and 0.68 μL/mL of 30% hydrogen peroxide in citrate/phosphate buffer. The reaction was quenched after approximately three minutes with a water rinse. The colored spots were quantitated with a reflectance densitometer (Gretag model 183). The results are presented in Table II in arbitrary units of color density.

[2] = target: T2, HRP conjugated anti RSV monoclonal antibody (Armoracia rusticana, UniProt P00433); test: Sandwich immunoassay for RSV on IMMUNODYNE nylon membrane, HRP-labelled antibody, colored spot read with densitometer; format: biochemical, Horseradish; conditions: for intensity of the colored spot (color density): substrate 2 mg/mL
T2 sequence (P00433 31-338 limits assumed): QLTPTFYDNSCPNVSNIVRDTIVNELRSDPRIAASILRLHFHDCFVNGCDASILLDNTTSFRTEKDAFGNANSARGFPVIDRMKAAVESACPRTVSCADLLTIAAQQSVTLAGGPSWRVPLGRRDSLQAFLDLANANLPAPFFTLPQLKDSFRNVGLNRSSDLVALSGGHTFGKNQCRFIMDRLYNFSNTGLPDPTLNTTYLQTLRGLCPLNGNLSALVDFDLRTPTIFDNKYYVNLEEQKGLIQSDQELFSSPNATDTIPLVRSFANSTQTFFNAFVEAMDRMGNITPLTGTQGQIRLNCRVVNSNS
Protocol: Ten μg of anti RSV antibody in 2 μl of carbonate buffer (50 mM, pH 9.5) were applied to an IMMUNODYNE™ nylon membrane with a micropipette. The membrane was incubated with a TRIS buffered solution of casein to block the remaining sites, and dried. The membrane was assembled into a device which allows liquids to be passed through the membrane and into an absorbent pad. Serial dilutions of a 300 ng stock of RSV infected HEp-2 cells were prepared in a buffer containing TRIS, sodium chloride, EDTA and a detergent. 150 μl of this material was passed through the membrane. Another antibody coated membrane was treated with 300 ng of uninfected cells as a control.
The membranes were washed with TRIS buffered saline (TBS) and incubated with HRP conjugated anti RSV monoclonal antibody in TRIS containing casein. After two washings with TBS buffer, the membranes were treated with citrate/phosphate buffered (pH 5.0) solutions of DAT and DAB (2 mg/mL) containing hydrogen peroxide. After a five minute incubation, the enzymatic reaction was stopped by the addition of TBS, and the intensity of the colored spots was compared using a densitometer (Model 183, Gretag Ltd., CH-8105 Regensdorf, Switzerland). The background control substracted results of this experiment are presented in Table 1 in arbitrary units of color density.

[3] = IMMUNODYNE nylon membrane, amount of HRP 30 pg
[4] = IMMUNODYNE nylon membrane, amount of HRP 0.3 ng
[5] = IMMUNODYNE nylon membrane, amount of HRP 3 ng
[6] = IMMUNODYNE nylon membrane, amount of HRP 30 ng
[7] = IMMUNODYNE nylon membrane, amount of HRP 0.3 mg
[8] = Nitrocellulose membrane, amount of HRP 30 pg
[9] = Nitrocellulose membrane, amount of HRP 0.3 ng
[10] = Nitrocellulose membrane, amount of HRP 3 ng
[11] = Nitrocellulose membrane, amount of HRP 30 ng
[12] = Nitrocellulose membrane, amount of HRP 0.3 mg
[13] = 11 ng of infected cells, pH 5.0, five minute incubation
[14] = 33 ng of infected cells, pH 5.0, five minute incubation
[15] = 100 ng of infected cells, pH 5.0, five minute incubation
[16] = 300 ng of RSV infected HEp-2 cells, pH 5.0, hydrogen peroxide, five minute incubation, background control subtracted
[17] = Control: 300 ng of uninfected cells, pH 5.0, five minute incubation

SMILES | color density of spot [1, 3] | color density of spot [1, 4] | color density of spot [1, 5] | color density of spot [1, 6] | color density of spot [1, 7] | color density of spot [1, 8] | color density of spot [1, 9] | color density of spot [1, 10] | color density of spot [1, 11] | color density of spot [1, 12] | intensity of the colored spot (color density) [2, 13] | intensity of the colored spot (color density) [2, 14] | intensity of the colored spot (color density) [2, 15] | intensity of the colored spot (color density) [2, 16] | color reading on the densitometer, in words ([2]; 300 ng of infected cells) | intensity of the colored spot (color density) [2, 17] | amount of infected cells down to which stable, deeply colored spots well above control values were obtained ([2]; RSV infected HEp-2 cells)
Nc1cc(Cl)c(Cl)cc1N [4,5-Dichloro-1,2-phenylenediamine] | .00 arbitrary units | .00 arbitrary units | .10 arbitrary units | .41 arbitrary units | .48 arbitrary units | .02 arbitrary units | .10 arbitrary units | .31 arbitrary units | .43 arbitrary units | .60 arbitrary units |  |  |  |  |  |  | 
Cc1cc(N)c(N)cc1C [4,5-Dimethyl-1,2-phenylenediamine] | .00 arbitrary units | .05 arbitrary units | .22 arbitrary units | .50 arbitrary units | .53 arbitrary units | .03 arbitrary units | .11 arbitrary units | .22 arbitrary units | .43 arbitrary units | .55 arbitrary units |  |  |  |  |  |  | 
Nc1ccc(Cl)cc1N [4-Chloro-1,2-phenylenediamine] | .06 arbitrary units | .12 arbitrary units | .68 arbitrary units | 1.89 arbitrary units | 2.24 arbitrary units | .09 arbitrary units | .26 arbitrary units | .55 arbitrary units | .87 arbitrary units | 1.25 arbitrary units |  |  |  |  |  |  | 
Nc1ccc(-c2ccc(N)c(N)c2)cc1N [DAB, 3,3'-diaminobenzidine, reference compound] | .00 arbitrary units | .04 arbitrary units | .22 arbitrary units | .78 arbitrary units | 1.67 arbitrary units | .00 arbitrary units | .04 arbitrary units | .22 arbitrary units | .43 arbitrary units | 1.03 arbitrary units | .04 arbitrary units | .03 arbitrary units | .04 arbitrary units | .07 arbitrary units | barely perceptible color reading | 0 arbitrary units | 
Cc1ccc(N)c(N)c1 [DAT, 3,4 Diaminotoluene] | .04 arbitrary units | .21 arbitrary units | .54 arbitrary units | .85 arbitrary units | .99 arbitrary units | .03 arbitrary units | .09 arbitrary units | .10 arbitrary units | .28 arbitrary units | .38 arbitrary units | .28 arbitrary units | .37 arbitrary units | .57 arbitrary units | .82 arbitrary units |  | .24 arbitrary units | 33 ng
Cc1cc(-c2cc(C)c(N)c(C)c2)cc(C)c1N [TMB, 3,3',5,5'-tetramethylbenzidine, reference compound] | .00 arbitrary units | .00 arbitrary units | .11 arbitrary units | .19 arbitrary units | .23 arbitrary units | .01 arbitrary units | .04 arbitrary units | .08 arbitrary units | .09 arbitrary units | .09 arbitrary units |  |  |  |  |  |  | 
